Test results as given in the supplement of paper PMC11451515.

Columns and labels:
Conditions in all cases: 48 h
[1] = tested on: NOMO1; assay: AUC of viability dose-response curve (% viability x log10 dose units); higher = less sensitive
Procedure, shortened: (§1)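 Leukemia cells adapted to each medium were seeded in 1536-well plates (500 or 1000 cells/well). They were dosed with library compounds in DMSO at 11 threefold doses, 47 μM to 0.79 nM, for 48 h at 37°C. CellTiter-Glo One luminescence was normalised per plate to DMSO and cell-free wells. Area under the curve was integrated by trapezoidal rule over log10 doses on a four-parameter log-logistic fit; curves exceeding full viability were scaled and curves failing quality control removed.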

[2] = tested on: SEM cells; assay: as above
Procedure, shortened: as §1

[3] = tested on: P12-Ichikawa; assay: as above
Procedure, shortened: as §1

[4] = tested on: NOMO1; assay: cell viability relative to DMSO control; higher = less cytotoxic
Procedure, shortened: (§2)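 Viability, reported as a per-plate percentage of DMSO wells with cell-free wells as background, came from CellTiter-Glo One luminescence. Reading took place after 48 h at 37°C. Before that, NOMO1 or SEM (500 cells/well) or P12-Ichikawa (1000 cells/well) leukemia cells, adapted for at least four passages in each medium, were seeded in 1536-well plates (5 μl) and pin-dosed with library compounds in DMSO, 47 μM to 0.79 nM over 11 threefold points.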

[5] = tested on: SEM cells; assay: as above
Procedure, shortened: as §2

[6] = tested on: P12-Ichikawa; assay: as above
Procedure, shortened: as §2

[7] = RPMI 5 mM glucose + 10% dialyzed FBS
[8] = HPLM + 10% dialyzed FBS, 0.000781 µM
[9] = HPLM + 10% dialyzed FBS, 0.00234 µM
[10] = HPLM + 10% dialyzed FBS, 0.00702 µM
[11] = HPLM + 10% dialyzed FBS, 0.0211 µM
[12] = HPLM + 10% dialyzed FBS, 0.0632 µM
[13] = HPLM + 10% dialyzed FBS, 0.19 µM
[14] = HPLM + 10% dialyzed FBS, 0.569 µM
[15] = HPLM + 10% dialyzed FBS, 1.71 µM
[16] = HPLM + 10% dialyzed FBS, 5.12 µM
[17] = HPLM + 10% dialyzed FBS, 15.4 µM
[18] = HPLM + 10% dialyzed FBS, 46.1 µM
[19] = RPMI 5 mM glucose + 10% FBS, 0.000781 µM
[20] = RPMI 5 mM glucose + 10% FBS, 0.00234 µM
[21] = RPMI 5 mM glucose + 10% FBS, 0.00702 µM
[22] = RPMI 5 mM glucose + 10% FBS, 0.0211 µM
[23] = RPMI 5 mM glucose + 10% FBS, 0.0632 µM
[24] = RPMI 5 mM glucose + 10% FBS, 0.19 µM
[25] = RPMI 5 mM glucose + 10% FBS, 0.569 µM
[26] = RPMI 5 mM glucose + 10% FBS, 1.71 µM
[27] = RPMI 5 mM glucose + 10% FBS, 5.12 µM
[28] = RPMI 5 mM glucose + 10% FBS, 15.4 µM
[29] = RPMI 5 mM glucose + 10% FBS, 46.1 µM
[30] = RPMI 5 mM glucose + 10% dialyzed FBS, 0.000781 µM
[31] = RPMI 5 mM glucose + 10% dialyzed FBS, 0.00234 µM
[32] = RPMI 5 mM glucose + 10% dialyzed FBS, 0.00702 µM
[33] = RPMI 5 mM glucose + 10% dialyzed FBS, 0.0211 µM
[34] = RPMI 5 mM glucose + 10% dialyzed FBS, 0.0632 µM
[35] = RPMI 5 mM glucose + 10% dialyzed FBS, 0.19 µM
[36] = RPMI 5 mM glucose + 10% dialyzed FBS, 0.569 µM
[37] = RPMI 5 mM glucose + 10% dialyzed FBS, 1.71 µM
[38] = RPMI 5 mM glucose + 10% dialyzed FBS, 5.12 µM
[39] = RPMI 5 mM glucose + 10% dialyzed FBS, 15.4 µM
[40] = RPMI 5 mM glucose + 10% dialyzed FBS, 46.1 µM

C[C@H]1[C@@H](C(=O)C[C@H]2O[C@@H]3O[C@]4(C)CC[C@H]5[C@H](C)CC[C@@H]([C@H]2C)[C@@]35OO4)O[C@@H]2O[C@]3(C)CC[C@H]4[C@H](C)CC[C@@H]1[C@@]24OO3
AUC of viability dose-response curve ([1]; HPLM + 10% dialyzed FBS): 435
AUC of viability dose-response curve ([1]; RPMI 5 mM glucose + 10% FBS): 436
AUC of viability dose-response curve [1, 7]: 418
AUC of viability dose-response curve ([2]; HPLM + 10% dialyzed FBS): 411
AUC of viability dose-response curve ([2]; RPMI 5 mM glucose + 10% FBS): 407
AUC of viability dose-response curve [2, 7]: 432
AUC of viability dose-response curve ([3]; HPLM + 10% dialyzed FBS): 433
AUC of viability dose-response curve ([3]; RPMI 5 mM glucose + 10% FBS): 435
AUC of viability dose-response curve [3, 7]: 421
cell viability [4, 8]: 114%
cell viability [4, 9]: 121%
cell viability [4, 10]: 122%
cell viability [4, 11]: 102%
cell viability [4, 12]: 127%
cell viability [4, 13]: 115%
cell viability [4, 14]: 116%
cell viability [4, 15]: 102%
cell viability [4, 16]: 111%
cell viability [4, 17]: 67%
cell viability [4, 18]: 21%
cell viability [4, 19]: 103%
cell viability [4, 20]: 117%
cell viability [4, 21]: 102%
cell viability [4, 22]: 99.4%
cell viability [4, 23]: 110%
cell viability [4, 24]: 110%
cell viability [4, 25]: 103%
cell viability [4, 26]: 109%
cell viability [4, 27]: 105%
cell viability [4, 28]: 58.4%
cell viability [4, 29]: 24.8%
cell viability [4, 30]: 114%
cell viability [4, 31]: 131%
cell viability [4, 32]: 105%
cell viability [4, 33]: 120%
cell viability [4, 34]: 122%
cell viability [4, 35]: 107%
cell viability [4, 36]: 93.9%
cell viability [4, 37]: 95.2%
cell viability [4, 38]: 96.2%
cell viability [4, 39]: 69%
cell viability [4, 40]: 24.6%
cell viability [5, 8]: 92.6%
cell viability [5, 9]: 106%
cell viability [5, 10]: 95.1%
cell viability [5, 11]: 83.9%
cell viability [5, 12]: 102%
cell viability [5, 13]: 84.1%
cell viability [5, 14]: 84.6%
cell viability [5, 15]: 91.5%
cell viability [5, 16]: 89%
cell viability [5, 17]: 75.4%
cell viability [5, 18]: 6.82%
cell viability [5, 19]: 87.2%
cell viability [5, 20]: 112%
cell viability [5, 21]: 116%
cell viability [5, 22]: 109%
cell viability [5, 23]: 113%
cell viability [5, 24]: 107%
cell viability [5, 25]: 105%
cell viability [5, 26]: 96.8%
cell viability [5, 27]: 72.1%
cell viability [5, 28]: 53.1%
cell viability [5, 29]: 5.74%
cell viability [5, 30]: 96.3%
cell viability [5, 31]: 114%
cell viability [5, 32]: 115%
cell viability [5, 33]: 99.7%
cell viability [5, 34]: 113%
cell viability [5, 35]: 109%
cell viability [5, 36]: 116%
cell viability [5, 37]: 96.9%
cell viability [5, 38]: 92.9%
cell viability [5, 39]: 75%
cell viability [5, 40]: 7.69%
cell viability [6, 8]: 117%
cell viability [6, 9]: 113%
cell viability [6, 10]: 116%
cell viability [6, 11]: 124%
cell viability [6, 12]: 115%
cell viability [6, 13]: 119%
cell viability [6, 14]: 113%
cell viability [6, 15]: 110%
cell viability [6, 16]: 90.1%
cell viability [6, 17]: 86.3%
cell viability [6, 18]: 14.4%
cell viability [6, 19]: 117%
cell viability [6, 20]: 130%
cell viability [6, 21]: 121%
cell viability [6, 22]: 121%
cell viability [6, 23]: 120%
cell viability [6, 24]: 119%
cell viability [6, 25]: 102%
cell viability [6, 26]: 104%
cell viability [6, 27]: 102%
cell viability [6, 28]: 82.7%
cell viability [6, 29]: 9.74%
cell viability [6, 30]: 120%
cell viability [6, 31]: 111%
cell viability [6, 32]: 112%
cell viability [6, 33]: 113%
cell viability [6, 34]: 110%
cell viability [6, 35]: 101%
cell viability [6, 36]: 98.8%
cell viability [6, 37]: 102%
cell viability [6, 38]: 93.6%
cell viability [6, 39]: 56.1%
cell viability [6, 40]: 15.4%

CC1(N2CCC(n3c([C@@H]4CCCNC4)nc4ccccc43)CC2)CCCCCCC1
AUC of viability dose-response curve ([1]; HPLM + 10% dialyzed FBS): 420
AUC of viability dose-response curve ([1]; RPMI 5 mM glucose + 10% FBS): 460
AUC of viability dose-response curve [1, 7]: 433
AUC of viability dose-response curve ([2]; HPLM + 10% dialyzed FBS): 430
AUC of viability dose-response curve ([2]; RPMI 5 mM glucose + 10% FBS): 467
AUC of viability dose-response curve [2, 7]: 471
AUC of viability dose-response curve ([3]; HPLM + 10% dialyzed FBS): 456
AUC of viability dose-response curve ([3]; RPMI 5 mM glucose + 10% FBS): 458
AUC of viability dose-response curve [3, 7]: 456
cell viability [4, 8]: 77.1%
cell viability [4, 9]: 100%
cell viability [4, 10]: 112%
cell viability [4, 11]: 111%
cell viability [4, 12]: 127%
cell viability [4, 13]: 116%
cell viability [4, 14]: 116%
cell viability [4, 15]: 101%
cell viability [4, 16]: 94%
cell viability [4, 17]: 45.4%
cell viability [4, 18]: 7.21%
cell viability [4, 19]: 93.6%
cell viability [4, 20]: 103%
cell viability [4, 21]: 102%
cell viability [4, 22]: 112%
cell viability [4, 23]: 108%
cell viability [4, 24]: 124%
cell viability [4, 25]: 112%
cell viability [4, 26]: 120%
cell viability [4, 27]: 109%
cell viability [4, 28]: 97.7%
cell viability [4, 29]: 53.5%
cell viability [4, 30]: 91%
cell viability [4, 31]: 108%
cell viability [4, 32]: 122%
cell viability [4, 33]: 115%
cell viability [4, 34]: 121%
cell viability [4, 35]: 104%
cell viability [4, 36]: 130%
cell viability [4, 37]: 134%
cell viability [4, 38]: 98.4%
cell viability [4, 39]: 69.4%
cell viability [4, 40]: 17.8%
cell viability [5, 8]: 76.6%
cell viability [5, 9]: 88.6%
cell viability [5, 10]: 99.7%
cell viability [5, 11]: 105%
cell viability [5, 12]: 105%
cell viability [5, 13]: 89.3%
cell viability [5, 14]: 103%
cell viability [5, 15]: 96%
cell viability [5, 16]: 92.5%
cell viability [5, 17]: 72.2%
cell viability [5, 18]: 42.4%
cell viability [5, 19]: 99.3%
cell viability [5, 20]: 87.8%
cell viability [5, 21]: 105%
cell viability [5, 22]: 119%
cell viability [5, 23]: 121%
cell viability [5, 24]: 107%
cell viability [5, 25]: 119%
cell viability [5, 26]: 116%
cell viability [5, 27]: 109%
cell viability [5, 28]: 96.6%
cell viability [5, 29]: 87.3%
cell viability [5, 30]: 103%
cell viability [5, 31]: 78.8%
cell viability [5, 32]: 98.7%
cell viability [5, 33]: 111%
cell viability [5, 34]: 106%
cell viability [5, 35]: 95.7%
cell viability [5, 36]: 117%
cell viability [5, 37]: 113%
cell viability [5, 38]: 130%
cell viability [5, 39]: 77.3%
cell viability [5, 40]: 87.6%
cell viability [6, 8]: 101%
cell viability [6, 9]: 95.4%
cell viability [6, 10]: 106%
cell viability [6, 11]: 111%
cell viability [6, 12]: 113%
cell viability [6, 13]: 115%
cell viability [6, 14]: 113%
cell viability [6, 15]: 115%
cell viability [6, 16]: 108%
cell viability [6, 17]: 88%
cell viability [6, 18]: 55.6%
cell viability [6, 19]: 98.3%
cell viability [6, 20]: 95%
cell viability [6, 21]: 104%
cell viability [6, 22]: 115%
cell viability [6, 23]: 110%
cell viability [6, 24]: 111%
cell viability [6, 25]: 124%
cell viability [6, 26]: 118%
cell viability [6, 27]: 110%
cell viability [6, 28]: 86.9%
cell viability [6, 29]: 67.9%
cell viability [6, 30]: 97.1%
cell viability [6, 31]: 101%
cell viability [6, 32]: 104%
cell viability [6, 33]: 115%
cell viability [6, 34]: 112%
cell viability [6, 35]: 107%
cell viability [6, 36]: 110%
cell viability [6, 37]: 109%
cell viability [6, 38]: 109%
cell viability [6, 39]: 81.7%
cell viability [6, 40]: 65.9%
